Measurements from patent US20230255872A1, “ORAL CARE COMPOSITIONS AND METHODS” (DENTHERAPY LTD, priority 2020, published 2023).
Like-named read-outs stand apart in the source and are kept apart here.

How the values were obtained:
[1] = Further stain prevention cycling study (Example 8); parameters: species or system bovine
Protocol: Introduction. A cycling staining procedure as described in example 6 was again used to measure the staining prevention when bovine enamel was subjected to a cycling staining procedure after being treated with one of four formulations: ToothBoost MOL-6, a 3% solution of OPN pH adjusted to 7.0, a 1.25% solution of sodium bicarbonate pH adjusted to 7.0 and deionised water. The aim of the study was to rank the formulations in terms of their stain prevention capability when bovine enamel was treated with a combination of tea stain and chlorhexidine.
Method. The enamel cores were treated by spraying the assigned treatment onto the enamel face using a single actuation of the ToothBoost spray pack and incubating for two minutes.
The enamel specimens were then cycled between a 1% chlorhexidine solution, a solution of strong tea and artificial saliva for approximately ten cycles per day. At the end of the day of cycling the enamel was rinsed and allowed to dry before the enamel colour measured. The cycling continued for a total of three days of cycling. From the L*a*b* measurements the ΔE76 (change in perceivable colour) was calculated. ΔE76=1 is the smallest perceivable colour change that can be observed.
The cycling continued every day for three days.
After each set of cycling the enamel was rinsed with deionised water and allowed to dry before colour measurements were made. Fresh solutions were made at the start of each set of cycles.
Results. The change in colour of the enamel was calculated from the L*a*b* values where the ΔE76 (The difference between enamel colour before and after cycling) was determined from equation 1: […]

[2] = Protocol: (§1) Introduction. The remineralisation potential of three formulations: deionised water, 1450 ppm fluoride solution from MFP and fluoride free BoostPaste MON-6 formulation were tested in a standard microindentation erosive lesion rehardening model as described above in example 3. The objective of this study was to ascertain if fluoride free Boostpaste MON-6 formulation has the potential to remineralise erosive lesions without the presence of fluoride.
Method. Twice a day for five days human enamel specimens with citric acid erosive lesions were brushed with the test formulations and incubated in artificial saliva (containing 1500 units/L of phosphatase) at 37° C. between treatments. The microhardness of the enamel specimens was remeasured each day for five days and the degree of re-mineralization calculated using the boundary conditions of 100% mineralized for the hardness of the initial enamel before the formation of the lesions and 0% mineralization for the hardness of the enamel after the formation of the lesion.

[3] = remark: listed apart in the source
Protocol: as §1, with “500” for “1450”, “Toothboost MOL-15” for “BoostPaste MON-6”, “model,” for “model”, “Toothboost MOL-15” for “Boostpaste MON-6”
Method. Five times a day for five days human enamel specimens with citric acid erosive lesions were sprayed with 0.15 g of the test formulations and incubated in artificial saliva (containing 1500 units/L of phosphatase) at 37° C. between treatments. The microhardness of the enamel specimens was remeasured after five days and the degree of re-mineralization calculated using the boundary conditions of 100% mineralized for the hardness of the initial enamel before the formation of the lesions and 0% mineralization for the hardness of the enamel after the formation of the lesion.

[4] = Vickers microindentation erosive lesion rehardening model, MOK vs MOL (Example 3); details: bovine enamel, treated twice a day for seven days, spray approx 0.1 ml, N=8
Protocol: Introduction. […] The objective of the study was to ascertain if formulation development for ToothBoost retained remineralizing efficacy. Four treatment groups were placed in the study: 1. MOK (legacy formulation), 2. Phosphate free ToothBoost MOL (development formulation), 3. 500 ppm fluoride solution made from MFP, 4. Deionised water. N=8 enamel specimens per treatment group.
Enamel blocks are prepared from sound disease free human molars or bovine incisors and mounted in 25 mm diameter resin discs. After curing the underside of the disc is flattened using p400 grit paper. […]
The discs are then rinsed under deionised water and sonicated for five minutes. Initial microhardness of the sound enamel is measured by microindentation to determine that the enamel is sufficiently mineralized for the purpose of the study and to record the microhardness of the sound enamel. […]
Method. […] The microhardness of the de-mineralized enamel is then measured and the enamel discs organised so that each group have a similar range of microhardness values.
The citric acid eroded bovine enamel specimens were then treated twice a day for seven days. […] At the end of day seven, the enamel specimens were rinsed in deionised water, dried and the micro hardness of the enamel was measured by Vickers microindentation to determine the extent of the re-mineralization of the enamel lesions. […]

[5] = after the second round of treatments

O=C([O-])O.[Na+] [sodium bicarbonate]
protection from staining (ΔE76), statistical comparison [1, 5]: statistically the same

F [1450 ppm fluoride solution, monofluorophosphate]
remineralisation of erosive lesions, statistical comparison ([2]; brushed twice a day for five days): statistically better than deionised water
calculated remineralisation ([2]; human enamel, brushed twice a day, after five days of treatment, N=10): over 23%

F [500 ppm fluoride solution, monofluorophosphate]
remineralisation of erosive enamel lesions, statistical analysis ([3]; after 5 days of treatment): significant remineralisation
calculated remineralisation ([3]; human enamel, sprayed 0.15 g five times a day for five days, 100% = initial enamel hardness, 0% = after lesion): over 25%
remineralisation of erosive lesions (Vickers microhardness), statistical comparison [4]: statistically (probability <0.05) better than deionised water

OPN solution: 3% solution of OPN (osteopontin) pH adjusted to 7.0
protection from staining (ΔE76), statistical comparison ([1]; after the first set of treatments): statistically more protection than sodium bicarbonate solution
protection from staining (ΔE76), statistical comparison [1, 5]: statistically the same
protection from staining (ΔE76), statistical comparison ([1]; after the third round of treatments): statistically the same
protection from staining (ΔE76), statistical comparison ([1]; after the third round of treatments, listed as OPN): statistically better than sodium bicarbonate
